Results: patent US20260199367A1, “PLK1 DEGRADATION INDUCING COMPOUNDS WITH INCREASED RIGIDITY” (UPPTHERA, INC., priority 2022, published 2026)

Columns and labels:
Assay type in all cases: cell-based
NCI-H69 (H69) cell line = assay: Cell viability assay for NCI-H69 cell line; details: Homo sapiens, NCI-H69, 120 h, 5 days, EZ-Cytox, 0.46-3000 nM
Description: (§1) The NCI-H69 (hereafter H69) and NCI-H526 (hereafter H526) cell lines were purchased from Korea Cell Line Bank (KCLB, Seoul, Korea). For cell culture, RPMI 1640 (Gibco, Cat. No. 22400-089; Lot. No. 2537146), FBS (Gibco, Cat. No. 16000-044; Lot. No. 2511328P), Penicillin/Streptomycin (PS) (Gibco, Cat. No. 15140-122; Lot. No. 2441887), 75T cell culture flask (SPL, Cat. No. 71075), 175T cell culture flask (SPL, Cat. No. 71175), 96-well cell culture plate (SPL, Cat. No. 30096), PBS pH 7.4 (Gibco, Cat. No. 10010-023; Lot. No. 2509235), TrypLE™ Express (Gibco, Cat. No. 12605-010; Lot. No. 2323417), Cell Counter (Hematocytometer)(As one, Cat. No. 4-458-01), and 0.4% Trypan Blue Solution (DYNEBIO, Cat. No. CBT3710; Lot. No. 20221111) were used.
(§2) The compounds of Examples were completely dissolved in DMSO (Sigma-Aldrich Cat. No. D2438, Lot. No. RNBL7287) and used in the experiment. 3×10^4 cells were seeded for each well of a 96-well plate (SPL), and the cells were cultured in total volume of 150 μl. Each compound was diluted 3-folds from the highest concentration of 3000 nM to the lowest concentration of 0.46 nM. After treating the compound to each well to make the total volume of 200 μl, it was cultured in a CO2 incubator (Thermo Fisher Science, Cat. No. 4111) for 5 days. Then, after treating EZ-Cytox (DOGEN, Cat.NO. EZ-3000, Lot. No. DLS2308) 20 μl in each well, it was cultured in CO2 incubator for 4 hours. The absorbance of the completely cultured sample was measured by setting the wavelength of a plate reader (BMG Labtech, CLARIOstar Plus) to […], and was measured after shaking for 3 minutes in a plate reader before measurement.
(§3) (A: IC50 is less than 20 nM, B: IC50 is 50 nM or less, C: IC50 is 100 nM or less)

PLK1 = target: T1, PLK1 (Homo sapiens, UniProt P53350); assay: Luciferase assay for PLK1 in HeLa LgBit (PLK1-HiBit KI) cell line; details: released after thymidine block, compound 300 nM, luminescence after 9 hours
T1 construct: endogenous in cells; host or cells: HeLa LgBit (PLK1-HiBit KI): HeLa cells stably expressing LgBit, with CRISPR/Cas9 knock-in of HiBit at the endogenous PLK1 locus
T1 sequence (P53350 whole entry): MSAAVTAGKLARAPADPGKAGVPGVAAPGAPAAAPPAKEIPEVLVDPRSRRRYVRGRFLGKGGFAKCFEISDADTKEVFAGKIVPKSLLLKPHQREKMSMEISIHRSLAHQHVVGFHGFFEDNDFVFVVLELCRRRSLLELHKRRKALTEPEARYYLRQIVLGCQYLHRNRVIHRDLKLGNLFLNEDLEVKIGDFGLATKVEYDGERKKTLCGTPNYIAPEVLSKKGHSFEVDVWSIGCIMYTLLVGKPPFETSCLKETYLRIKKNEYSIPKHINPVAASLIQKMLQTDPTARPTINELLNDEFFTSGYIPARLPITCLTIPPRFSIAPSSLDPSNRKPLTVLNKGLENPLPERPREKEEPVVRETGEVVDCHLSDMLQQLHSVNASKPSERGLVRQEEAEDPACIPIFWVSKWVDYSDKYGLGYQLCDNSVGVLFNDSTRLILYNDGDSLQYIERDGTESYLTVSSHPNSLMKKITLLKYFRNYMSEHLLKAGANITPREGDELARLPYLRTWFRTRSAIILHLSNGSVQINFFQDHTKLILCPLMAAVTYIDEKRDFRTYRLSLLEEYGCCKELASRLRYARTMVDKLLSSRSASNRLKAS
Method: A HeLa cell line in which the LgBit vector was transfected and expressed stably was prepared. Then, after constructing gRNA and donor to express the HiBit amino acid sequence behind the C-terminal of the PLK1 gene, which was inherent in the cell, it was inserted into the cell together with a vector capable of expressing CRISPR/Cas9. Only the cells in which the insertion was completed and knock-in had progressed were selected, sub-cultured and used.
The compounds of Examples were completely dissolved in DMSO (Sigma-Aldrich Cat. No. D2438, Lot. No. RNBL5438) and used in the experiment.
In the case of HeLa LgBit (Plk1-HiBit KI), the compounds were treated after being released after thymidine block, and the process was as follows. Thymidine (Sigma-Aldrich Cat. No. T9250-5G) was completely dissolved in ddH2O and used in the experiment. For thymidine block, the products were treated with 2 mM of thymidine and then incubated for 24 hours. For release and chemical treatment, the medium was suctioned and washed with 1×PBS. TrypLE™ was added and incubated in 37° C. CO2 incubator (Thermo Fisher Science, Cat. No. 4111) for 5 mins. Cells neutralized by adding complete media were counted through a counter. For each well of a 96-well culture plate (SPL), 3.3×10^4 cells and a total medium volume of 150 μl were seeded and incubated in a CO2 incubator.
Each cell line was incubated in a CO2 incubator for 18 hours, and Endurazine (Promega, Cat. No. N257B) was added to each well to make up 4% of the total volume. After adding compounds of Examples in a 96-well white plate (SPL) to a concentration of 300 nM, the wavelength of the plate reader (BMG Labtech, CLARIOstar Plus) was set to 470-480 nM, and then the luminescence was tracked in real time.

[1] = test system: NCI-H526 (H526) cell line; assay: Cell viability assay for NCI-H526 cell line; details: Homo sapiens, NCI-H526, 120 h, 5 days, EZ-Cytox, 0.46-3000 nM
Description: as §1, §2, §3

Compound | IC50 (NCI-H69 (H69) cell line) [nM] | Value (luminescence value, PLK1-HiBit) (PLK1) | IC50 [1] [nM]
CC[C@@H]1C(=O)N(C)c2cnc(Nc3ccc(C(=O)NC4CCN(C(=O)C(N)CN5CCN(c6cccc7c6C(=O)N(C6CCC(=O)NC6=O)C7=O)CC5)CC4)cc3OC)nc2N1C1CCCC1 (stereo partly drawn) [Compound 9, N-(1-(2-amino-3-(4-(2-(2,6-dioxopiperidin-3-yl)-1,3-dioxoisoindolin-4-yl)piperazin-1-yl)propanoyl)piperidin-4-yl)-4-(((R)-8-cyclopentyl-7-ethyl-5-methyl-6-oxo-5,6,7,8-tetrahydropteridin-2-yl)amino)-3-methoxybenzamide] | ≤ 100 | 0.377 | < 20
COc1cc(C(=O)NCC2CCN(CC3CCN(c4ccc(NC5CCC(=O)NC5=O)cc4)CC3)CC2)ccc1Nc1ncc2c(n1)N(C1CCCC1)CC(F)(F)C(=O)N2C (stereo not drawn) [Compound 28, 4-((9-cyclopentyl-7,7-difluoro-5-methyl-6-oxo-6,7,8,9-tetrahydro-5H-pyrimido[4,5-b][1,4]diazepin-2-yl)amino)-N-((1-((1-(4-((2,6-dioxopiperidin-3-yl)amino)phenyl)piperidin-4-yl)methyl)piperidin-4-yl)methyl)-3-methoxybenzamide] | ≤ 100 | 0.259 | ≤ 50
CC[C@@H]1C(=O)N(C)c2cnc(Nc3ccc(C(=O)NC4CCC(N5CCC(CNc6ccc(C7CCC(=O)NC7=O)cc6)CC5)CC4)cc3OC)nc2N1C1CCCC1 (stereo partly drawn) [Compound 2, 4-(((R)-8-cyclopentyl-7-ethyl-5-methyl-6-oxo-5,6,7,8-tetrahydropteridin-2-yl)amino)-N-((1r,4R)-4-(4-(((4-(2,6-dioxopiperidin-3-yl)phenyl)amino)methyl)piperidin-1-yl)cyclohexyl)-3-methoxybenzamide] | < 20 | 0.129 | < 20
CC[C@@H]1C(=O)N(C)c2cnc(Nc3ccc(C(=O)NC4CCC(N5CCC(CNCc6ccc(C7CCC(=O)NC7=O)cc6)CC5)CC4)cc3OC)nc2N1C1CCCC1 (stereo partly drawn) [Compound 7, 4-(((R)-8-cyclopentyl-7-ethyl-5-methyl-6-oxo-5,6,7,8-tetrahydropteridin-2-yl)amino)-N-((1r,4R)-4-(4-(((4-(2,6-dioxopiperidin-3-yl)benzyl)amino)methyl)piperidin-1-yl)cyclohexyl)-3-methoxybenzamide] | ≤ 50 | 0.214 | < 20
COc1cc(C(=O)NC2CCC(NCC3CCN(c4ccc(C5CCC(=O)NC5=O)cc4F)CC3)CC2)ccc1Nc1ncc2c(n1)N(C1CCCC1)CC(F)(F)C(=O)N2C (stereo not drawn) [Compound 30, 4-((9-cyclopentyl-7,7-difluoro-5-methyl-6-oxo-6,7,8,9-tetrahydro-5H-pyrimido[4,5-b][1,4]diazepin-2-yl)amino)-N-((1r,4r)-4-(((1-(4-(2,6-dioxopiperidin-3-yl)-2-fluorophenyl)piperidin-4-yl)methyl)amino)cyclohexyl)-3-methoxybenzamide] | ≤ 50 | 0.250 | ≤ 50
CC[C@@H]1C(=O)N(C)c2cnc(Nc3ccc(C(=O)NC4CCC(NCC5CCN(c6ccc(C7CCC(=O)NC7=O)cc6F)CC5)CC4)cc3OC)nc2N1C1CCCC1 (stereo partly drawn) [Compound 18, 4-(((R)-8-cyclopentyl-7-ethyl-5-methyl-6-oxo-5,6,7,8-tetrahydropteridin-2-yl)amino)-N-((1r,4R)-4-(((1-(4-(2,6-dioxopiperidin-3-yl)-2-fluorophenyl)piperidin-4-yl)methyl)amino)cyclohexyl)-3-methoxybenzamide] | < 20 | 0.111 | < 20
CC[C@@H]1C(=O)N(C)c2cnc(Nc3ccc(C(=O)NC4CCC(N5CCN(CCc6ccc(C7CCC(=O)NC7=O)cc6)CC5)CC4)cc3OC)nc2N1C1CCCC1 (stereo partly drawn) [Compound 20, 4-(((R)-8-cyclopentyl-7-ethyl-5-methyl-6-oxo-5,6,7,8-tetrahydropteridin-2-yl)amino)-N-((1r,4R)-4-(4-(4-(2,6-dioxopiperidin-3-yl)phenethyl)piperazin-1-yl)cyclohexyl)-3-methoxybenzamide] | < 20 | 0.154 | < 20
CC[C@@H]1C(=O)N(C)c2cnc(Nc3ccc(C(=O)NN4CCC(N5CCC(CNc6ccc(C7CCC(=O)NC7=O)cc6)CC5)CC4)cc3OC)nc2N1C1CCCC1 (stereo partly drawn) [Compound 21, 4-(((R)-8-cyclopentyl-7-ethyl-5-methyl-6-oxo-5,6,7,8-tetrahydropteridin-2-yl)amino)-N-(4-(((4-(2,6-dioxopiperidin-3-yl)phenyl)amino)methyl)-[1,4′-bipiperidin]-1′-yl)-3-methoxybenzamide] | < 20 | 0.144 | < 20
CC[C@@H]1C(=O)N(C)c2cnc(Nc3ccc(C(=O)NCC4CCN(CC5CCN(c6ccc(NC7CCC(=O)NC7=O)cc6)CC5)CC4)cc3OC)nc2N1C1CCCC1 (stereo partly drawn) [Compound 13, 4-(((R)-8-cyclopentyl-7-ethyl-5-methyl-6-oxo-5,6,7,8-tetrahydropteridin-2-yl)amino)-N-((1-((1-(4-((2,6-dioxopiperidin-3-yl)amino)phenyl)piperidin-4-yl)methyl)piperidin-4-yl)methyl)-3-methoxybenzamide] | ≤ 100 | 0.165 | < 20
CC[C@@H]1C(=O)N(C)c2cnc(Nc3ccc(C(=O)NC4CCN(C(=O)C(N)CN5CCN(c6ccc(C7CCC(=O)NC7=O)cc6)CC5)CC4)cc3OC)nc2N1C1CCCC1 (stereo partly drawn) [Compound 11, N-(1-(2-amino-3-(4-(4-(2,6-dioxopiperidin-3-yl)phenyl)piperazin-1-yl)propanoyl)piperidin-4-yl)-4-(((R)-8-cyclopentyl-7-ethyl-5-methyl-6-oxo-5,6,7,8-tetrahydropteridin-2-yl)amino)-3-methoxybenzamide] | ≤ 50 | 0.234 | < 20
CC[C@@H]1C(=O)N(C)c2cnc(Nc3ccc(C(=O)NC4CCC(N5CCC(NCc6cccc7c6CN(C6CCC(=O)NC6=O)C7=O)CC5)CC4)cc3OC)nc2N1C1CCCC1 (stereo partly drawn) [Compound 12, 4-(((R)-8-cyclopentyl-7-ethyl-5-methyl-6-oxo-5,6,7,8-tetrahydropteridin-2-yl)amino)-N-((1r,4R)-4-(4-(((2-(2,6-dioxopiperidin-3-yl)-1-oxoisoindolin-4-yl)methyl)amino)piperidin-1-yl)cyclohexyl)-3-methoxybenzamide] | ≤ 100 | 0.372 | ≤ 50
COc1cc(C(=O)NCC2CCN(CC3CCN(c4ccc(C5CCC(=O)NC5=O)cc4)CC3)CC2)ccc1Nc1ncc2c(n1)N(C1CCCC1)CC(F)(F)C(=O)N2C (stereo not drawn) [Compound 27, 4-((9-cyclopentyl-7,7-difluoro-5-methyl-6-oxo-6,7,8,9-tetrahydro-5H-pyrimido[4,5-b][1,4]diazepin-2-yl)amino)-N-((1-((1-(4-(2,6-dioxopiperidin-3-yl)phenyl)piperidin-4-yl)methyl)piperidin-4-yl)methyl)-3-methoxybenzamide] | ≤ 50 | 0.295 | ≤ 50
